Molecular target: T1, recombinant human estrone sulfatase (Homo sapiens, UniProt P08842)
T1 sequence (P08842 22-583): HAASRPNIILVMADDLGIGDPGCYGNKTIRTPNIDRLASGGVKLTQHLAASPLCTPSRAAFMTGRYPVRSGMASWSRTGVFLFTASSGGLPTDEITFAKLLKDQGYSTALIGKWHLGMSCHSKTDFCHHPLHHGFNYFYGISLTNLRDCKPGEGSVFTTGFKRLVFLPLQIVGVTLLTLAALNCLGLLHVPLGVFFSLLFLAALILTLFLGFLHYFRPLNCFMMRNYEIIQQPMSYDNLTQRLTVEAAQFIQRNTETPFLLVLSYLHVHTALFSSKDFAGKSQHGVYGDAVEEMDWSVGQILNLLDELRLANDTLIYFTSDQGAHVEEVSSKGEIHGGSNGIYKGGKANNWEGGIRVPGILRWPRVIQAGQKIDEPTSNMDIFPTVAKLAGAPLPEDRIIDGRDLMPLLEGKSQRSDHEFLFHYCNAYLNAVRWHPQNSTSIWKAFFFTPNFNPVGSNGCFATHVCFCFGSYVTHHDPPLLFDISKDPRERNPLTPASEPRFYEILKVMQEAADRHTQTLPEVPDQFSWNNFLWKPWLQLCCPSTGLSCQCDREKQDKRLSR
Experiment: Estrone sulfatase (steroid sulfatase) inhibition test (Method A), [3H]-estrone sulfate substrate
Format: biochemical
Conditions: [6,7-3H]-estrone sulfate 6.67 μmol/L, pH 7.5, 37° C., 30 minutes, read-out: Inhibitory Activity against Steroid Sulfatase IC50
Protocol: Estrone Sulfatase (Steroid Sulfatase) Inhibition Test (Method A)
[6,7-^3H]-Estrone sulfate (final concentration 6.67 μmol/L; 0.025 μCi/tube), recombinant human estrone sulfatase (33 ng/tube) and an estra-1,3,5(10)-triene derivative of each test concentration (the estra-1,3,5(10)-triene derivative was dissolved in 0.003 mL of DMSO) were added to a phosphate buffer (pH 7.5, final volume 0.15 mL) containing 0.25 mol/L of sucrose and 0.04 mol/L of nicotinamide, and the mixture was subjected to enzymatic reaction at 37° C. for 30 minutes. The recombinant human estrone sulfatase used herein was prepared from CHO (Chinese hamster ovary) cells, which were transfected with a human estrone sulfatase gene, after partial purification. After the enzymatic reaction, toluene (0.5 mL) was added to the reaction mixture followed by stirring, and the mixture was centrifuged at 9000 rpm for 5 minutes. The toluene extract layer was taken out, and the radioactivity of the [^3H]-estrone formed therein was measured with a liquid scintillation counter. The measurement was carried out at one time by duplication, and the assay fluctuation was 10% or less. The enzymatic reaction in the absence of the test compound was also carried out simultaneously. The inhibitory activity against estrone sulfatase of the test compound of each concentration was calculated according to the equation shown below. Inhibitory Activity against Estrone Sulfatase (%)=100−{100×[(A−C)/(B−C)]} wherein; • A: the amount of [^3H]-estrone formed in the presence of the test compound • B: the amount of [^3H]-estrone formed in the absence of the test compound • C: the amount of [^3H]-estrone formed in the absence of both of the recombinant human estrone sulfatase and the test compound.
(§1) The inhibitory activity against estrone sulfatase of the estra-1,3,5(10)-triene derivative tested can be designated by the concentration (IC50) of the derivative that reduces the estrone sulfatase activity to a half of that in the control system not containing the test compound.

| Structure (SMILES) | IC50 [nM] |
| --- | --- |
| CC12CCC3c4ccc(OS(N)(=O)=O)cc4CCC3C1CC=C2C(=O)Nc1cnccn1 (stereo not drawn) [Compound 40] | 9.4 |
| CC12CCC3c4ccc(OS(N)(=O)=O)cc4CCC3C1CC=C2C(=O)NC1CCCC1 (stereo not drawn) [Compound 7] | 1 |
| CC12CCC3c4ccc(OS(N)(=O)=O)cc4CCC3C1CC=C2C(=O)N1CCCC1 (stereo not drawn) [Compound 1] | 4.4 |
| CC12CCC3c4ccc(OS(N)(=O)=O)cc4CCC3C1CC=C2C(=O)NCC1CC1 (stereo not drawn) [Compound 9] | 3.6 |
| CC12CCC3c4ccc(OS(N)(=O)=O)cc4CCC3C1CC=C2C(=O)Nc1ccccc1 (stereo not drawn) [Compound 34] | 10 |
| CC12CCC3c4ccc(OS(N)(=O)=O)cc4CCC3C1CCC2C(=O)N1CCCC1 (stereo not drawn) [Compound 73] | 6 |
| COCCNC(=O)C1CCC2C3CCc4cc(OS(N)(=O)=O)ccc4C3CCC12C (stereo not drawn) [Compound 76] | 15.5 |
| CC12CCC3c4ccc(OS(N)(=O)=O)cc4CCC3C1CC=C2C(=O)NCCCCO (stereo not drawn) [Compound 22] | 9.8 |
| COC(=O)CCCCCNC(=O)C1=CCC2C3CCc4cc(OS(N)(=O)=O)ccc4C3CCC12C (stereo not drawn) [Compound 14] | 10 |
| C=CCNC(=O)C1=CCC2C3CCc4cc(OS(N)(=O)=O)ccc4C3CCC12C (stereo not drawn) [Compound 10] | 5.6 |
| COC(=O)C(NC(=O)C1=CCC2C3CCc4cc(OS(N)(=O)=O)ccc4C3CCC12C)C(C)C (stereo not drawn) [Compound 29] | 4.5 |
| COCCNC(=O)C1=CCC2C3CCc4cc(OS(N)(=O)=O)ccc4C3CCC12C (stereo not drawn) [Compound 18] | 2.8 |
| COC(=O)C1CCCN1C(=O)C1=CCC2C3CCc4cc(OS(N)(=O)=O)ccc4C3CCC12C (stereo not drawn) [Compound 33] | 5.1 |
| CCCNC(=O)C=C1CCC2C3CCc4cc(OS(N)(=O)=O)ccc4C3CCC12C (stereo not drawn) [Compound 81] | 6.2 |

Molecular target: T1, recombinant human estrone sulfatase
Experiment: Estrone sulfatase (steroid sulfatase) inhibition test (Method B), 4-methylumbelliferyl sulfate substrate
Format: biochemical
Conditions: 4-methylumbelliferyl sulfate 0.3 mmol/L, pH 7.5, 37° C., 1 hour, read-out: Inhibitory Activity against Steroid Sulfatase IC50
Protocol: Estrone Sulfatase (Steroid Sulfatase) Inhibition Test (Method B)
4-Methylumbelliferyl sulfate (final concentration 0.3 mmol/L), recombinant human estrone sulfatase (7.8 ng/well) and an estra-1,3,5(10)-triene derivative of each test concentration (the estra-1,3,5(10)-triene derivative was dissolved in 0.001 mL of DMSO) were added to a phosphate buffer (pH 7.5, final volume 0.1 mL) containing 0.28 mol/L of sucrose and 0.04 mol/L of nicotinamide, and the mixture was subjected to enzymatic reaction at 37° C. for 1 hour. The recombinant human estrone sulfatase used herein was prepared from CHO (Chinese hamster ovary) cells, which were transfected with a human estrone sulfatase gene, after partial purification. After the enzymatic reaction, an aqueous solution of 2 mol/L glycine-sodium hydroxide (pH 10.3, 0.13 mL) was added thereto followed by stirring. Using a fluorescent plate reader (Cyto Fluor II), the fluorescent intensity of 4-methylumbelliferone formed in the system was measured. The measurement was carried out at one time by duplication, and the assay fluctuation was 10% or less. The enzymatic reaction in the absence of the test compound was also carried out simultaneously. The inhibitory activity against estrone sulfatase of the test compound of each concentration was calculated according to the equation shown below. Inhibitory Activity against Estrone Sulfatase (%)=100−[100×(A/B)] wherein; • A: the amount of 4-methylumbelliferone formed in the presence of the test compound, • B: the amount of 4-methylumbelliferone formed in the absence of the test compound.
as §1

| Structure (SMILES) | IC50 [nM] |
| --- | --- |
| CC12CCC3c4ccc(OS(N)(=O)=O)cc4CCC3C1CCC2CC(=O)N1CCOCC1 (stereo not drawn) [Compound 88] | 11 |
| CC12CCC3c4ccc(OS(N)(=O)=O)cc4CCC3C1CC=C2C(=O)N1CCN(c2ccccn2)CC1 (stereo not drawn) [Compound 5] | 3.7 |
| CC(C)(CO)NC(=O)C1=CCC2C3CCc4cc(OS(N)(=O)=O)ccc4C3CCC12C (stereo not drawn) [Compound 23] | 26 |
| CCn1nccc1NC(=O)C1=CCC2C3CCc4cc(OS(N)(=O)=O)ccc4C3CCC12C (stereo not drawn) [Compound 62] | 8.9 |
| COCCOCCOC(=O)C1=CCC2C3CCc4cc(OS(N)(=O)=O)ccc4C3CCC12C (stereo not drawn) [Compound 71] | 17 |
| CC12CCC3c4ccc(OS(N)(=O)=O)cc4CCC3C1CC=C2C(=O)NNc1ccccn1 (stereo not drawn) [Compound 69] | 6 |
| CCCNC(=O)CC1CCC2C3CCc4cc(OS(N)(=O)=O)ccc4C3CCC12C (stereo not drawn) [Compound 85] | 10.3 |
| Cc1coc(C2=CCC3C4CCc5cc(OS(N)(=O)=O)ccc5C4CCC23C)n1 (stereo not drawn) [Compound 92] | 21 |
| Cc1cnc(CNC(=O)C2=CCC3C4CCc5cc(OS(N)(=O)=O)ccc5C4CCC23C)cn1 (stereo not drawn) [Compound 49] | 24.2 |
| CC12CCC3c4ccc(OS(N)(=O)=O)cc4CCC3C1CC=C2c1cccnc1 (stereo not drawn) [Compound 90] | 12 |
| CCOC(=O)CC1CCC2C3CCc4cc(OS(N)(=O)=O)ccc4C3CCC12C (stereo not drawn) [Compound 83] | 12 |
| CC12CCC3c4ccc(OS(N)(=O)=O)cc4CCC3C1CC=C2C(=O)NCc1ccc(C(=O)O)cc1 (stereo not drawn) [Compound 37] | 6 |
| CC12CCC3c4ccc(OS(N)(=O)=O)cc4CCC3C1CC=C2C(=O)Nc1ccon1 (stereo not drawn) [Compound 58] | 11 |
| COc1ccc(NC(=O)C2=CCC3C4CCc5cc(OS(N)(=O)=O)ccc5C4CCC23C)cn1 (stereo not drawn) [Compound 39] | 3.7 |
| COc1ccnc(CNC(=O)C2=CCC3C4CCc5cc(OS(N)(=O)=O)ccc5C4CCC23C)c1 (stereo not drawn) [Compound 47] | 5 |
| CC12CCC3c4ccc(OS(N)(=O)=O)cc4CCC3C1CC=C2C(=O)NCCCc1ccncc1 (stereo not drawn) [Compound 55] | 4.5 |

From US6953785B2, “Estra-1,3,5(10)-triene derivatives” (priority 2000, dated 2005)
